We go through five molecules from ChEMBL document CHEMBL1201862, “PubChem BioAssay data set” (2004).

The source made the active and inactive calls. A value given as a limit tells only on which side of the number the result lay.

For assay [1], the target named is Transitional endoplasmic reticulum ATPase (Homo sapiens, UniProt P55072, C522A). As to the kind of experiment: C522A mutant p97 ATPase inhibitors, dose response, counter-screen for p97 inhibitor project, biochemical, luminescence (AID 1544). For orientation: The purpose of a counterscreen is to sort out artefacts and off-target activity.
Assay [2] concerns the target Transitional endoplasmic reticulum ATPase (Homo sapiens, UniProt P55072). The experiment in a line: p97 ATPase inhibitors, dose response, biochemical (AID 1534).
Assay [3] concerns the target Induced myeloid leukemia cell differentiation protein Mcl-1 (Homo sapiens, UniProt Q07820). Format: functional.
Assay [4] addresses Beta-galactosidase (Escherichia coli, UniProt Q8VNN2). As to the kind of experiment: beta-galactosidase enzyme inhibitors and activators, dose response, artefact control for CCR6 antagonist project, biochemical, E. coli enzyme, set 3 (AID 504712). The format is functional.
Assay [5] has as its target SUMO E1/E2 (Homo sapiens, UniProt P63279+Q9UBE0+Q9UBT2). As to the kind of experiment: SAR analysis of SUMOylation using HTRF in an in-Vitro dose response assay. [Related pubchem assays (depositor defined):AID2006, AID2011, AID2018, AID2069, AID2658]. Format: functional.
Assay [6] has as its target T1, Voltage-gated N-type calcium channel alpha-1B subunit/Amyloid beta A4 precursor protein-binding family A member 1 (Homo sapiens, UniProt Q00975+Q02410). As to the kind of experiment: disruptors of Mint-PDZ/N-type channel peptide interaction – biochemical, HTRF, set 2, SAR follow-up (AID 434980). The format is functional.
Assay [7] concerns the target T1, Voltage-gated N-type calcium channel alpha-1B subunit/Amyloid beta A4 precursor protein-binding family A member 1. The experiment in a line: disruptors of Mint-PDZ/N-type channel peptide interaction – biochemical, HTRF, SAR follow-up (AID 2489). The format is functional.
Assay [8] deals with Streptococcus sp. 'group A'. As to the kind of experiment: growth inhibition of control SK(-) GAS strain, dose response, counter-screen for streptokinase expression inhibitor project, luminescence, kanamycin, BacTiterGlo, confirmation (AID 1900). The format is functional, organism-based.
The target in assay [9] is T2, Streptokinase A (Streptococcus pyogenes serotype M1, UniProt P10520).
T2 sequence (P10520 whole entry): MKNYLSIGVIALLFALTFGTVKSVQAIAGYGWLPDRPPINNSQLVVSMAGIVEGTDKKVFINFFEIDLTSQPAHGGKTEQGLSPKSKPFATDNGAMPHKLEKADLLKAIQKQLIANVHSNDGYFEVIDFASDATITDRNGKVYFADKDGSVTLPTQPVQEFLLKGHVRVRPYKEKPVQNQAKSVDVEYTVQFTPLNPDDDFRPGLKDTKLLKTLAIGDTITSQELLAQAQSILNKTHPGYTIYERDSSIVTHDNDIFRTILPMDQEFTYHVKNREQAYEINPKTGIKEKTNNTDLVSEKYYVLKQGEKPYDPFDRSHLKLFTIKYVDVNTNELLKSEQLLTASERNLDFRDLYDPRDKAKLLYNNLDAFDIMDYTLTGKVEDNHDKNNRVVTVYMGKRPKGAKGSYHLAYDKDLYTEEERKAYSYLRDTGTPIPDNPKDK
As to the kind of experiment: S. pyogenes streptokinase expression inhibitors, potency, dose response, plasminogen activation absorbance, OD405 (AID 1914).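 Further: secreted streptokinase activity via plasminogen activation per viability signal from cell pellet.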 The format is functional, Streptococcus pyogenes M1 GAS.

In assay [10] the test system is Streptococcus. As to the kind of experiment: Group A Streptococcus viability loss, dose response, counter-screen for streptokinase expression inhibitor project, luminescence, BacTiterGlo (AID 1915).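 Further: potency for reduction of bacterial viability or growth.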 The format is functional, organism-based.
In assay [11] the target is Scavenger receptor class B member 1 (Mus musculus, UniProt Q61009). The experiment in a line: inhibitors of SR-BI mediated HDL lipid uptake, dose response, ldlA[mSR-BI] cells, fluorescence, cherry pick (AID 493194).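 Further: cellular uptake of fluorescent DiI-labeled HDL measured as cell fluorescence.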 The format is functional, cell-based.
Assay [12] deals with Aminopeptidase N (Plasmodium falciparum FcB1/Columbia, UniProt O96935). As to the kind of experiment: P. falciparum M1AAP inhibitors, biochemical, fluorogenic H-Leu-NHMec substrate, 1536-well (AID 1445). Also noted: species or system Plasmodium falciparum 3D7, 3D7.
Sequence of Aminopeptidase N (O96935 whole entry): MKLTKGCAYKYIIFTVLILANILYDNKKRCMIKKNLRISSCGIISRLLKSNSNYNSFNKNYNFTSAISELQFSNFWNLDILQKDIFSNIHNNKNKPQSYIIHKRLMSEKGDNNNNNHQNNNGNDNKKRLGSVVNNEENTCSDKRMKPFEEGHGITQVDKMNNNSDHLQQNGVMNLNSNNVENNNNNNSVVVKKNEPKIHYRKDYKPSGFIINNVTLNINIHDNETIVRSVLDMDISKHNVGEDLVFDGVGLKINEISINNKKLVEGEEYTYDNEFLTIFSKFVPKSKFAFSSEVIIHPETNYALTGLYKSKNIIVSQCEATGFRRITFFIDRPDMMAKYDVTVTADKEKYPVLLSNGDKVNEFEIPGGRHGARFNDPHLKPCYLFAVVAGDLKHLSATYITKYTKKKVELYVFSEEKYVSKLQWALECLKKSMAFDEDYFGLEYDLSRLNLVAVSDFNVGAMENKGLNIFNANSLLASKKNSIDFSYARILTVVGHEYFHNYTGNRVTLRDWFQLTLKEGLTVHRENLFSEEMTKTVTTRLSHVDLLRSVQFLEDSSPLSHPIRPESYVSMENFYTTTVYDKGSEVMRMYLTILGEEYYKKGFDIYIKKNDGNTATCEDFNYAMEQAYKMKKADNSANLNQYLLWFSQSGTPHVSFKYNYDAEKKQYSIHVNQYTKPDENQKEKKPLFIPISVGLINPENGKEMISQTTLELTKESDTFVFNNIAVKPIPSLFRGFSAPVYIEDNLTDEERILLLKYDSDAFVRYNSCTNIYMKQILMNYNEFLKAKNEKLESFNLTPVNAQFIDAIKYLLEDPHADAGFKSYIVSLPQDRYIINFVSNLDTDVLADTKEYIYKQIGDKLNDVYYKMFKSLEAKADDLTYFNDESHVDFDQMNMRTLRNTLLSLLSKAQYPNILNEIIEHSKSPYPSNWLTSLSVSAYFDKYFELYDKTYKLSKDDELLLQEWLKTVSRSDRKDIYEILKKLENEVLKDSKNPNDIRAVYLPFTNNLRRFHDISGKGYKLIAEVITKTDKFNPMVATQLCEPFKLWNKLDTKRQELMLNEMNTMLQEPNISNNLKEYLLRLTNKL
For assay [13], the target named is T3, Long-chain-fatty-acid--AMP ligase FadD28 (Mycobacterium tuberculosis, UniProt P9WQ59).
T3 sequence (P9WQ59 whole entry): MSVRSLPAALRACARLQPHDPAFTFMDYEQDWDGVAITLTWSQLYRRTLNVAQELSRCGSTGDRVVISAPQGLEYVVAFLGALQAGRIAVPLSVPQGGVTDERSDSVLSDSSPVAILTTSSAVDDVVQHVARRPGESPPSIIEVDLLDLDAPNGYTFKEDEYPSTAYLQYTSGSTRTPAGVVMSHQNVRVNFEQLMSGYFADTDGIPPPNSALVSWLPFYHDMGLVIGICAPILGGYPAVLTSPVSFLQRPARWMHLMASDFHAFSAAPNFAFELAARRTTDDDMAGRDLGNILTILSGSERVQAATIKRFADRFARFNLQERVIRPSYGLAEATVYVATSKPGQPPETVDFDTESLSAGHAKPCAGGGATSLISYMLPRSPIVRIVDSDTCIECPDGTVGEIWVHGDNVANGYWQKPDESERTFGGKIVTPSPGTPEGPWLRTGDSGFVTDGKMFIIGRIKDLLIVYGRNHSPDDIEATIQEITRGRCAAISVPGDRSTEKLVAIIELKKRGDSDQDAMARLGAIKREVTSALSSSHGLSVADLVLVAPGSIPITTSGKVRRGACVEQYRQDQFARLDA
The experiment in a line: Fluorescence polarization aasay to screen for inhibitors that compete for the binding of FadD28 to a bisubstrate Measured in Biochemical System Using Plate Reader - 2147-01_Inhibitor_Dose_CherryPick_Activity. Format: functional, Mycobacterium tuberculosis H37Rv. A general note: In fluorescence polarisation assays a small probe gives low polarisation when free and higher when bound to something large.

Assay [14] concerns the target Vasopressin V1a receptor (Homo sapiens, UniProt P37288). The experiment in a line: Counterscreen for Oxytocin Receptor (OXTR) agonists: Fluorescence-based cell-based high throughput dose response assay to identify agonists of the vasopressin 1 receptor (V1R). [Related pubchem assays: 2435 (Primary screen (OXTR agonists in singlicate)), 434991 (Counterscreen (V1R agonists in triplicate)), 2482 (Summary (OXTR agonists)) …. Format: functional.

Assay [15] deals with Oxytocin receptor (Homo sapiens, UniProt P30559). As to the kind of experiment: Fluorescence-based cell-based high throughput dose response assay for agonists of the Oxytocin Receptor (OXTR). [Related pubchem assays: 2435 (Primary screen (OXTR agonists in singlicate)), 434991 (Counterscreen (V1R agonists in triplicate)), 2482 (Summary (OXTR agonists)), 434963 (Confirmation screen (OXTR agonists in triplicate))]. The format is functional.
Sequence of Oxytocin receptor (P30559 whole entry): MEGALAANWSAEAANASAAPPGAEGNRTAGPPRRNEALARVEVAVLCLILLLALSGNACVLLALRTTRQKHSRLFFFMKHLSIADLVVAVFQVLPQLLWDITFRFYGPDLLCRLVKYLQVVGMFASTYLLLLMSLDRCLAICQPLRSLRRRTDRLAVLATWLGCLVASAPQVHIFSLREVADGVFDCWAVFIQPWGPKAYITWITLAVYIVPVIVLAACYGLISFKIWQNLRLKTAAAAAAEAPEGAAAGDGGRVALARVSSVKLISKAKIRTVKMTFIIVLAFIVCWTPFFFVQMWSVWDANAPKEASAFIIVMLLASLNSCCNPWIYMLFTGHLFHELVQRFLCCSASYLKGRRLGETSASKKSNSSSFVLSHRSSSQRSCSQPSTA

T1 sequence (Q00975 whole entry): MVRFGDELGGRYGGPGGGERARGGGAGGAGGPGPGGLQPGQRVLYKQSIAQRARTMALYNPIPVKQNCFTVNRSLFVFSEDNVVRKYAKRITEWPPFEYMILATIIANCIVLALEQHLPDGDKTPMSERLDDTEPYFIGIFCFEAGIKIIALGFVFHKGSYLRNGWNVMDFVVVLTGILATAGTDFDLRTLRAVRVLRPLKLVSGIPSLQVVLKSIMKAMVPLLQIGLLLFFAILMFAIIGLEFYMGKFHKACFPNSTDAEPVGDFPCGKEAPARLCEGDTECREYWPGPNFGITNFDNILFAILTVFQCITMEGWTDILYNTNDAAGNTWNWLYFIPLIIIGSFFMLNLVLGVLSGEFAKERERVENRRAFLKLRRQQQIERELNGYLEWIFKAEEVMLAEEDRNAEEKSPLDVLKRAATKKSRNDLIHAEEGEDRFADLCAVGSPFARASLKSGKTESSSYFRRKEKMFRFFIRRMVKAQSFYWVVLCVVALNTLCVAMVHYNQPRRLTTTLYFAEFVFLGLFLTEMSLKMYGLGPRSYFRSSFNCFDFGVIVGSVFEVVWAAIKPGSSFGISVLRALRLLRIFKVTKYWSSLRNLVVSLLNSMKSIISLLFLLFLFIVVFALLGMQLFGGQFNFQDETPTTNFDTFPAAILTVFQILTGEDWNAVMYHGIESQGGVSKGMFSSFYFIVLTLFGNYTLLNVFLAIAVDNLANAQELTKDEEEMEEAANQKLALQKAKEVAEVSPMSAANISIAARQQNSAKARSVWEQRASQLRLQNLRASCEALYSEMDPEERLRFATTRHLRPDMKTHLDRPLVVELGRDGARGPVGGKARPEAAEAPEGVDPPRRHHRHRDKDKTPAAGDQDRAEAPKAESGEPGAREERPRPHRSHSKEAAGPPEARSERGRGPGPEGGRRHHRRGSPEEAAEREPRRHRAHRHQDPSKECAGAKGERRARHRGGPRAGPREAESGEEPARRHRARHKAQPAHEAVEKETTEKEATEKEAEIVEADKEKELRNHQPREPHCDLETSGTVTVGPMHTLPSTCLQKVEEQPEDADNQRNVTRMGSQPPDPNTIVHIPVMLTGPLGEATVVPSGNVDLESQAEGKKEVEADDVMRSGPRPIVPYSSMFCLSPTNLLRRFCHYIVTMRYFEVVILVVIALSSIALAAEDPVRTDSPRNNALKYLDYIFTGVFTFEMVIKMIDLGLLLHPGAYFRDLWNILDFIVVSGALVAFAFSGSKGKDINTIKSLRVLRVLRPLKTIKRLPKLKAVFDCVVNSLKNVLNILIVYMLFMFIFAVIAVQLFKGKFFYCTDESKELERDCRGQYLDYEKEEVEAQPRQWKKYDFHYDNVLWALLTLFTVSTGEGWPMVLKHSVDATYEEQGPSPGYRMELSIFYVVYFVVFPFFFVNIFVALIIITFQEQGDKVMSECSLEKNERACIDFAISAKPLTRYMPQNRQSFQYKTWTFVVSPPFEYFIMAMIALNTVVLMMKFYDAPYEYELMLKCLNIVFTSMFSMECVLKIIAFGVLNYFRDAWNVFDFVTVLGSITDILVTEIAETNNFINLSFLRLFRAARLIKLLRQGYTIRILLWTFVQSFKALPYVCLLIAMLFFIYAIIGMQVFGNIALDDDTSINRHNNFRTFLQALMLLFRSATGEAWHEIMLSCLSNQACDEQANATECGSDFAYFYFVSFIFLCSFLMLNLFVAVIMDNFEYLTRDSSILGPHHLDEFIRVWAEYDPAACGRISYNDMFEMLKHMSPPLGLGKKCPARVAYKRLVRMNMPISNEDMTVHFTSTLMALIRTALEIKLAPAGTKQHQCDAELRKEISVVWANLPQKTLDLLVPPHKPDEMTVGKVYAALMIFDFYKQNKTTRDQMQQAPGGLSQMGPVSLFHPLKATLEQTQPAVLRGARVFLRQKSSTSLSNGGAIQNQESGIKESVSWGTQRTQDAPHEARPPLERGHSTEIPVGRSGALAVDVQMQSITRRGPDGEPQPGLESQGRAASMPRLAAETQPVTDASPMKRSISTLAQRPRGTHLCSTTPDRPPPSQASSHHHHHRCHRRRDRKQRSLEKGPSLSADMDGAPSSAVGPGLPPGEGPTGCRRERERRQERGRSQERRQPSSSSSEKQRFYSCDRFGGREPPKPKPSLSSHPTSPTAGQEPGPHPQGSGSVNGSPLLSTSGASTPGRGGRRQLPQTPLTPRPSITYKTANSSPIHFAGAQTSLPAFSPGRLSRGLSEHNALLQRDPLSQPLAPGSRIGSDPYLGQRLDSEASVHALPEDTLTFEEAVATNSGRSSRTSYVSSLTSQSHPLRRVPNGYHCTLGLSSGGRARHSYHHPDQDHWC
T1 sequence (Q02410 whole entry): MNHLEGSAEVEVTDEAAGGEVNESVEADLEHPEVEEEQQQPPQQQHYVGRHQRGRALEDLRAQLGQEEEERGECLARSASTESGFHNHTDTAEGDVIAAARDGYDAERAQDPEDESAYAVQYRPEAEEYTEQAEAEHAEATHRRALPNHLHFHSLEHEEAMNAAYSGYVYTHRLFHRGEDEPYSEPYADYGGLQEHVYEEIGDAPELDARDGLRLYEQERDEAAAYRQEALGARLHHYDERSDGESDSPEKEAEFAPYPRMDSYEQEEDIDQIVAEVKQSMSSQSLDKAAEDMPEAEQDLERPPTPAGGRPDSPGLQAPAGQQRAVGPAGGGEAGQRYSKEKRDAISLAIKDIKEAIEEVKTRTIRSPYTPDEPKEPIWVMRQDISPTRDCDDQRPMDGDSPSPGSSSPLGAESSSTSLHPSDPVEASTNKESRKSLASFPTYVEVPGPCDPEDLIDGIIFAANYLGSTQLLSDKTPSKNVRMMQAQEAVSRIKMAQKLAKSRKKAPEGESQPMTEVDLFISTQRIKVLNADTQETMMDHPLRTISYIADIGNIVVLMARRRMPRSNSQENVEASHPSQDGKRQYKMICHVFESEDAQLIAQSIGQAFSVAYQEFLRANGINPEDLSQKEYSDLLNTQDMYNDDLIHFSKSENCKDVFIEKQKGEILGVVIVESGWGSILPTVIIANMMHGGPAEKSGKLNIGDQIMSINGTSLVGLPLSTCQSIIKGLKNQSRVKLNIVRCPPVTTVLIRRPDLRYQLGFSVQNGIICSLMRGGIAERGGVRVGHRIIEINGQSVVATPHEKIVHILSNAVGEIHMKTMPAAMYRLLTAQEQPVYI
Sequence of Induced myeloid leukemia cell differentiation protein Mcl-1 (Q07820 whole entry): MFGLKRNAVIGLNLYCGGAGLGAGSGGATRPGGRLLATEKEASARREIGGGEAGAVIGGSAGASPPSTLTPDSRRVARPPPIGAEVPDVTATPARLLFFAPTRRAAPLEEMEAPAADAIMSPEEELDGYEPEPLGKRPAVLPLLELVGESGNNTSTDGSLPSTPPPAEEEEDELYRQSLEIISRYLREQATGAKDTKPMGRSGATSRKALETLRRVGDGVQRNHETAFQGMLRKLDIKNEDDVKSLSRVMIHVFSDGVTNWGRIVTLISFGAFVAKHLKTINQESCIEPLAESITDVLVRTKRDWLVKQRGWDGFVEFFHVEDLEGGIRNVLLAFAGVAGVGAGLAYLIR

Consider `O=C1NC(=S)S/C1=C\c1c(-c2ccccc2)[nH]c2ccccc12`, for which the IC50 (in general, the concentration needed to halve the response being measured) in [1] is > 50 µM (not active); in assay [2], > 50 µM (not active); in [3] it was 4.97 µM (active); in assay [4], > 66.6 µM (inactive).

Consider `O=C(NN=Cc1ccc(F)cc1)c1cc(-c2ccco2)nc2ccccc12`, for which the results for the IC50 in [5], in assay [6] and in assay [7] were 5.24 µM (active), 10.9 µM (active) and 6.45 µM (active), respectively.

As to `O=C(Nc1ccc(-c2csc(Nc3ccccc3)n2)cc1)c1cccc(C(F)(F)F)c1`, the EC50 in [8], in [9] and in assay [10] was > 150 µM (not active) in each case. Besides, the AC50 (commonly the midpoint of the concentration-response curve, whichever way the signal moves) in assay [11] was 0.347 µM (active).

For the molecule `NS(=O)(=O)c1ccc(Nc2nc3ccccc3nc2NS(=O)(=O)c2cccc([N+](=O)[O-])c2)cc1`, the IC50 in assay [12] was 42.9 µM (active). The AC50 in assay [13] is 53 µM (active).

With `CC(C(=O)Nc1ccc2c(c1)OCO2)c1ccc([N+](=O)[O-])cc1` (stereo not given), the EC50 in [14] and in assay [15] was > 29.9 µM (not active) each time.
